Read-outs that look alike come from different tables or passages of the source.
Biological target: CB1R (Homo sapiens, UniProt P21554)
Experiment: cell-based
Type: binding

Chain of CB1R (P21554 whole entry): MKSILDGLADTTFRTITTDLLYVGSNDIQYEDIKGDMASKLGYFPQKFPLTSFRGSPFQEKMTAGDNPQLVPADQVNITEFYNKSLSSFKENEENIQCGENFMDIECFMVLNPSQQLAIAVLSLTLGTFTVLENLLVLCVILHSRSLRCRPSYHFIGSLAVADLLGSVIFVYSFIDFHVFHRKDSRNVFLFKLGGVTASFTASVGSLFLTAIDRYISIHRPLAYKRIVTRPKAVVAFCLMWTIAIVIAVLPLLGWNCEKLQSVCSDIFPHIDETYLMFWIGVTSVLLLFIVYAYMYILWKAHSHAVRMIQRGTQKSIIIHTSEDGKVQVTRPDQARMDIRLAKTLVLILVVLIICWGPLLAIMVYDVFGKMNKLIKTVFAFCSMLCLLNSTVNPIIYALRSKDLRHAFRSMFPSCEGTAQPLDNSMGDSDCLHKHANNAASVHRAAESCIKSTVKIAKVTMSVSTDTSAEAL

Row | Compound | Ki (read-out: Ki (nM), binding affinity for CB1R, competition with 3 nM [3H]-SR141716A, 6 h at 4°C, Ki=IC50/(1+[D]/Kd)) [nM] | Ki [nM]
1 | AM-1248 [Compound 10] | 104 | 
2 | N#Cc1c(Oc2cccc(OS(=O)(=O)CCCC(F)(F)F)c2)cccc1C(F)(F)F [Compound 29, 3-[2-cyano-3-(trifluoromethyl)phenoxy]phenyl-4,4,4-trifluoro-1-butanesulfonate] |  | 18.1

Source: publication PMC11214964 (Biomolecules & Therapeutics, 2024)
